Numbers after ± are expanded uncertainties.
Test: xn = mol fraction of the nth substance listed
Settings: Gas, isochoric method

Measured: specific volume

F/C=C(\F)C(F)(F)F [(Z)-1,2,3,3,3-pentafluoro-1-propene] + CC(C)C
0.0717 ± 0.0003 m3/kg: 308.15 K, 309.8 kPa, x2 = 0.345 | 313.15 K, 315.5 kPa, x2 = 0.345 | 318.15 K, 321.3 kPa, x2 = 0.345 | 323.15 K, 327 kPa, x2 = 0.345
0.0586 ± 0.0003 m3/kg: 328.15 K, 442.8 kPa, x2 = 0.477 | 333.15 K, 450.8 kPa, x2 = 0.477 | 338.15 K, 458.7 kPa, x2 = 0.477 | 343.15 K, 466.6 kPa, x2 = 0.477 | 348.15 K, 474.5 kPa, x2 = 0.477 | 353.15 K, 482.3 kPa, x2 = 0.477 | 358.15 K, 490.2 kPa, x2 = 0.477 | 363.15 K, 497.9 kPa, x2 = 0.477
0.1217 ± 0.0004 m3/kg: 318.15 K, 218 kPa, x2 = 0.504 | 323.15 K, 221.7 kPa, x2 = 0.504 | 328.15 K, 225.3 kPa, x2 = 0.504 | 333.15 K, 229 kPa, x2 = 0.504
0.122 ± 0.0004 m3/kg: 378.15 K, 262 kPa, x2 = 0.504 | 383.15 K, 265.6 kPa, x2 = 0.504
0.0902 ± 0.0003 m3/kg: 328.15 K, 426.4 kPa, x2 = 0.916 | 333.15 K, 434 kPa, x2 = 0.916 | 338.15 K, 441.7 kPa, x2 = 0.916 | 343.15 K, 449.4 kPa, x2 = 0.916 | 348.15 K, 457 kPa, x2 = 0.916
0.0904 ± 0.0003 m3/kg: 378.15 K, 502.4 kPa, x2 = 0.916 | 383.15 K, 509.9 kPa, x2 = 0.916
0.1219 ± 0.0003 m3/kg: 358.15 K, 247.3 kPa, x2 = 0.504 | 363.15 K, 251 kPa, x2 = 0.504 | 368.15 K, 254.6 kPa, x2 = 0.504
0.0901 ± 0.0003 m3/kg: 308.15 K, 394.7 kPa, x2 = 0.916 | 313.15 K, 402.8 kPa, x2 = 0.916 | 318.15 K, 410.7 kPa, x2 = 0.916 | 323.15 K, 418.5 kPa, x2 = 0.916
0.1216 ± 0.0004 m3/kg: 303.15 K, 207 kPa, x2 = 0.504 | 308.15 K, 210.7 kPa, x2 = 0.504 | 313.15 K, 214.4 kPa, x2 = 0.504
0.1075 ± 0.0004 m3/kg: 328.15 K, 326.2 kPa, x2 = 0.797
0.1074 ± 0.0004 m3/kg: 308.15 K, 303.6 kPa, x2 = 0.797 | 313.15 K, 309.3 kPa, x2 = 0.797 | 318.15 K, 315 kPa, x2 = 0.797 | 323.15 K, 320.6 kPa, x2 = 0.797
0.0633 ± 0.0002 m3/kg: 348.15 K, 362.8 kPa, x2 = 0.175
0.0587 ± 0.0003 m3/kg: 368.15 K, 505.7 kPa, x2 = 0.477 | 373.15 K, 513.5 kPa, x2 = 0.477 | 378.15 K, 521.3 kPa, x2 = 0.477 | 383.15 K, 529 kPa, x2 = 0.477
0.0632 ± 0.0003 m3/kg: 308.15 K, 316 kPa, x2 = 0.175 | 313.15 K, 321.9 kPa, x2 = 0.175
0.0718 ± 0.0003 m3/kg: 328.15 K, 332.9 kPa, x2 = 0.345 | 333.15 K, 338.6 kPa, x2 = 0.345 | 338.15 K, 344.2 kPa, x2 = 0.345 | 343.15 K, 349.8 kPa, x2 = 0.345 | 348.15 K, 355.4 kPa, x2 = 0.345 | 353.15 K, 361 kPa, x2 = 0.345
0.0634 ± 0.0002 m3/kg: 353.15 K, 368.6 kPa, x2 = 0.175 | 358.15 K, 374.3 kPa, x2 = 0.175 | 363.15 K, 380.1 kPa, x2 = 0.175 | 368.15 K, 385.9 kPa, x2 = 0.175 | 373.15 K, 391.6 kPa, x2 = 0.175 | 378.15 K, 397.3 kPa, x2 = 0.175 | 383.15 K, 403.1 kPa, x2 = 0.175
0.0585 ± 0.0004 m3/kg: 308.15 K, 410.6 kPa, x2 = 0.477 | 313.15 K, 418.8 kPa, x2 = 0.477 | 318.15 K, 426.9 kPa, x2 = 0.477 | 323.15 K, 434.9 kPa, x2 = 0.477
0.0719 ± 0.0003 m3/kg: 358.15 K, 366.6 kPa, x2 = 0.345 | 363.15 K, 372.2 kPa, x2 = 0.345 | 368.15 K, 377.8 kPa, x2 = 0.345 | 373.15 K, 383.4 kPa, x2 = 0.345 | 378.15 K, 389 kPa, x2 = 0.345 | 383.15 K, 394.6 kPa, x2 = 0.345
0.1075 ± 0.0003 m3/kg: 333.15 K, 331.8 kPa, x2 = 0.797 | 338.15 K, 337.4 kPa, x2 = 0.797 | 343.15 K, 342.9 kPa, x2 = 0.797
0.1077 ± 0.0003 m3/kg: 368.15 K, 370.4 kPa, x2 = 0.797 | 373.15 K, 375.9 kPa, x2 = 0.797 | 378.15 K, 381.6 kPa, x2 = 0.797 | 383.15 K, 387 kPa, x2 = 0.797
0.0903 ± 0.0003 m3/kg: 353.15 K, 464.6 kPa, x2 = 0.916 | 358.15 K, 472.2 kPa, x2 = 0.916 | 363.15 K, 479.8 kPa, x2 = 0.916 | 368.15 K, 487.3 kPa, x2 = 0.916 | 373.15 K, 494.9 kPa, x2 = 0.916
0.122 ± 0.0003 m3/kg: 373.15 K, 258.3 kPa, x2 = 0.504
0.1076 ± 0.0003 m3/kg: 348.15 K, 348.5 kPa, x2 = 0.797 | 353.15 K, 354.1 kPa, x2 = 0.797 | 358.15 K, 359.6 kPa, x2 = 0.797 | 363.15 K, 365.1 kPa, x2 = 0.797
0.0633 ± 0.0003 m3/kg: 318.15 K, 327.8 kPa, x2 = 0.175 | 323.15 K, 333.7 kPa, x2 = 0.175 | 328.15 K, 339.5 kPa, x2 = 0.175 | 333.15 K, 346.4 kPa, x2 = 0.175 | 338.15 K, 351.2 kPa, x2 = 0.175 | 343.15 K, 357 kPa, x2 = 0.175
0.1218 ± 0.0003 m3/kg: 338.15 K, 232.6 kPa, x2 = 0.504 | 343.15 K, 236.3 kPa, x2 = 0.504 | 348.15 K, 239.9 kPa, x2 = 0.504 | 353.15 K, 243.6 kPa, x2 = 0.504
